Drawing on patent publication US20160324836A1, “INJECTABLE DEPOT FORMULATIONS” (pSivida US.Inc., priority 2015, published 2016), this text covers solubility for one compound.

Values after ≈ are worked out from the molar mass of the structure shown.

This data set is described as follows: Solubility in ethanol. Type of data set: physicochemical. Conditions: organic solvent or mixture. Here is the method: In preferred embodiments, the solvent is ethanol. […] Similarly, preferred kinase inhibitors, such as apatinib, axitinib, cabozantinib, cediranib, crenolanib, foretinib, lenvatinib, linifanib, masitinib, motesanib, nintedanib, pazopanib, pegaptanib, regorafenib, semaxanib, sorafenib, sunitinib, tivozanib, toceranib, vandetanib, vatalanib, bafetinib, bosutinib, dasatinib, imatinib, nilotinib, ponatinib, radotinib, and SU6656, are generally soluble in ethanol, e.g., at 1.0 mg/mL or higher.

By solubility is commonly meant the dissolved amount per volume that the medium holds.

`CNC(=O)c1cc(Oc2ccc(NC(=O)Nc3ccc(Cl)c(C(F)(F)F)c3)cc2)ccn1` [sorafenib]: the solubility was about 3.3 mg/mL (≈ 7.1 mM).
